How the values were obtained:
[1] = target: T1, monoacylglycerol lipase (MGLL) (Mus musculus, UniProt O35678); assay: ITC with purified MGLL; supported by pull-down and LC-MS activity assay in hepatocyte lysate; type: binding; parameters: N-terminal 6×His fusion protein of the mouse MGLL domain
T1 sequence (O35678 1-303): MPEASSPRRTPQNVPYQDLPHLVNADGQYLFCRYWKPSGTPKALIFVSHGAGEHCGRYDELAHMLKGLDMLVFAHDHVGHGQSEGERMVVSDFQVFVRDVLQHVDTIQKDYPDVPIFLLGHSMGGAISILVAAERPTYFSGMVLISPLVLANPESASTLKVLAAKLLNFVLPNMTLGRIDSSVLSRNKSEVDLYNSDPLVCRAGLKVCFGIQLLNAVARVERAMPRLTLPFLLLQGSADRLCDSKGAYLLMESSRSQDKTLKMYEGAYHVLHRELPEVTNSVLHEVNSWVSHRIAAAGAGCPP

[2] = target: T1, monoacylglycerol lipase (MGLL); assay: LC-MS 2-oleoylglycerol hydrolysis assay in hepatocyte lysate, […]; type: cell-based; parameters: endogenous or adenovirus-overexpressed MGLL in primary hepatocyte homogenate

Kd [1] [µM] | SMILES | LC-MS 2-oleoylglycerol hydrolysis assay in hepatocyte lysate, 50 μM [2]
40.6 | CC(=O)O[C@@H]1CC[C@@]2(C)[C@@H](CC[C@]3(C)[C@@H]2C(=O)C=C2[C@@H]4[C@@H](C)[C@H](C)CC[C@]4(C)CC[C@]23C)[C@@]1(C)C(=O)O [AKBA] | –
– | COC(=O)[C@]1(C)CC[C@]2(C)CC[C@]3(C)C4=CC=C5C(=CC(=O)C(O)=C5C)[C@]4(C)CC[C@@]3(C)[C@@H]2C1 [pristimerin] | both AKBA and pristimerin significantly reduced MGLL activity in wild-type primary hepatocytes as well as in those overexpressing MGLL
